The values that follow come from patent publication US7488598B2, “Mutant purine nucleoside phosphorylase proteins and cellular delivery thereof” (priority 2001, dated 2009).

One test concerns the target E. coli PNP mutant M65V (Escherichia coli, UniProt P0ABP8, M65V). As to conditions: for M65V, crude extract, rate of cleavage / M65V, pure enzyme, rate of cleavage: Table III, 100 μM substrate, HPLC, average of separate experiments.
Another test deals with wild-type E. coli PNP (Escherichia coli, UniProt P0ABP8). Particulars: Table III; 100 μM substrate; HPLC; average of separate experiments.
wild-type E. coli PNP, sequence (P0ABP8 whole entry): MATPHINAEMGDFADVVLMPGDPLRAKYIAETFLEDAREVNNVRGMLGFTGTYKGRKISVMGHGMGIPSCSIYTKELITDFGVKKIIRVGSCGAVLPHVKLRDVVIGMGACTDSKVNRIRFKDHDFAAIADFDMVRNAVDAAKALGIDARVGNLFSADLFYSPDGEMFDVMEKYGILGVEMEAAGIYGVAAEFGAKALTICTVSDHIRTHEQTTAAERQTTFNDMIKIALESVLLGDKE

E. coli PNP mutant M65V, sequence (P0ABP8 whole entry M65V): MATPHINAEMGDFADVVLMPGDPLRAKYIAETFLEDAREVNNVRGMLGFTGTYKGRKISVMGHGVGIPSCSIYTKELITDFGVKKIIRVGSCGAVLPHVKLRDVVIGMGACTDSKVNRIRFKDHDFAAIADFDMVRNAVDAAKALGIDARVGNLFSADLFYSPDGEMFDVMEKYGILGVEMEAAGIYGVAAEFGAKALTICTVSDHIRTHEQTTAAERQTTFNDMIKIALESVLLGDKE

For the compound `Nc1ncnc2c1ncn2[C@@H]1O[C@H](CO)[C@H](O)[C@@H]1O` [9-(β-D-lyxofuranosyl)-adenine], the “M65V, crude extract, rate of cleavage” value on E. coli PNP mutant M65V is reported as “— (No detectable activity at 100 μg/ml (limit of detection approximately 1 nmole/mg/hr))”. In addition, the “Wild type, pure enzyme, rate of cleavage” value on wild-type E. coli PNP is “— (No detectable activity at 100 μg/ml (limit of detection approximately 1 nmole/mg/hr))”.

Consider `Cc1ncnc2c1ncn2[C@@H]1O[C@H](CO)[C@H](O)[C@H]1O` [9-(β-D-xylofuranosyl)-6-methylpurine], for which the “M65V, crude extract, rate of cleavage” value on E. coli PNP mutant M65V was “— (No detectable activity at 100 μg/ml (limit of detection approximately 1 nmole/mg/hr))”. At wild-type E. coli PNP, the “Wild type, pure enzyme, rate of cleavage” value is “— (No detectable activity at 100 μg/ml (limit of detection approximately 1 nmole/mg/hr))”.

On to `Cc1ncnc2c1ncn2[C@@H]1O[C@@H](CO)[C@@H](O)[C@H]1O` [9-(α-L-lyxofuranosyl)-6-methylpurine, 6-Methyl-9-α-L-lyxofuranosylpurine], for which the “activity of mutant M65V PNP compared with wild-type PNP (in words)” value at E. coli PNP mutant M65V (Example 16 analysis) is on record as “more activity”. For the same compound, the “M65V, pure enzyme, rate of cleavage” value at E. coli PNP mutant M65V is given as 9,600 nmole/mg/hr. For the same compound, on wild-type E. coli PNP, the “Wild type, pure enzyme, rate of cleavage” value turned out to be 218 nmol/mg/h.

Turning to `Cc1ncnc2c1ncn2[C@@H]1O[C@H](CI)[C@@H](O)[C@H]1O` [6-Methyl-9-(5-deoxy-5-iodo-β-D-ribofuranosyl)purine], the “M65V, pure enzyme, rate of cleavage” value on E. coli PNP mutant M65V is listed as “— (No detectable activity at 100 μg/ml (limit of detection approximately 1 nmole/mg/hr))”. For the same compound, the “Wild type, pure enzyme, rate of cleavage” value at wild-type E. coli PNP is “— (No detectable activity at 100 μg/ml (limit of detection approximately 1 nmole/mg/hr))”.

For the compound `Cc1ncnc2c1ncn2[C@@H]1O[C@@H](C)[C@@H](O)[C@H]1O` [6-Methyl-9-(5-deoxy-α-L-lyxofuranosyl)purine], at E. coli PNP mutant M65V, the “M65V, crude extract, rate of cleavage” value is listed as 3,500 nmole/mg/hr. The “Wild type, pure enzyme, rate of cleavage” value on wild-type E. coli PNP is 20 nmol/mg/h.

In the case of `Cc1ncnc2c1ncn2[C@@H]1O[C@H](CO)[C@@H](O)[C@H]1O` [9-(β-D-ribofuranosyl)-6-methylpurine, 6-Methyl-9-(β-D-ribofuranosyl)purine], at E. coli PNP mutant M65V, the “M65V, pure enzyme, rate of cleavage” value is on record as 140,000 nmole/mg/hr. Besides, the “Wild type, pure enzyme, rate of cleavage” value at wild-type E. coli PNP is 100,000 nmole/mg/hr.

As to `Cc1ncnc2c1ncn2[C@@H]1O[C@H](CSc2ccccc2)[C@@H](O)[C@H]1O` [9-(5-deoxy-5-phenylthio-β-D-ribofuranosyl)-6-methylpurine], on E. coli PNP mutant M65V, the “M65V, crude extract, rate of cleavage” value is “— (No detectable activity at 100 μg/ml (limit of detection approximately 1 nmole/mg/hr))”. For the same compound, on wild-type E. coli PNP, the “Wild type, pure enzyme, rate of cleavage” value was “— (No detectable activity at 100 μg/ml (limit of detection approximately 1 nmole/mg/hr))”.

`Nc1nc2c(ncn2[C@@H]2C[C@H](CO)[C@@H](CO)O2)c(=S)[nH]1` [9-(2,3-dideoxy-3-hydroxymethyl-α-D-ribofuranosyl)-6-thioguanine]: on E. coli PNP mutant M65V, the “M65V, crude extract, rate of cleavage” value was “— (No detectable activity at 100 μg/ml (limit of detection approximately 1 nmole/mg/hr))”. For the same compound, the “Wild type, pure enzyme, rate of cleavage” value on wild-type E. coli PNP was determined as 242 nmol/mg/h.

As for `Cc1ncnc2c1ncn2[C@@H]1O[C@H](CO)[C@@H](O)[C@@H]1O` [9-(β-D-arabinofuranosyl)-6-methylpurine], at E. coli PNP mutant M65V, the “M65V, crude extract, rate of cleavage” value was found to be 3 nmol/mg/h. Also, the “Wild type, pure enzyme, rate of cleavage” value at wild-type E. coli PNP was 14 nmol/mg/h.

For `Cc1ncnc2c1ncn2[C@@H]1O[C@H](C)[C@@H](O)[C@H]1O` [6-Methyl-9-(5-deoxy-β-D-ribofuranosyl)purine], the “M65V, crude extract, rate of cleavage” value on E. coli PNP mutant M65V was determined as 1800 nmol/mg/h. On wild-type E. coli PNP, the “Wild type, pure enzyme, rate of cleavage” value was 406 nmol/mg/h.

`Nc1ncnc2c1ncn2[C@@H]1O[C@H](CO)[C@@H](O)[C@@H](O)[C@H]1O` [9-(β-D-allopyranosyl)-adenine]: at E. coli PNP mutant M65V, the “M65V, crude extract, rate of cleavage” value is given as “— (No detectable activity at 100 μg/ml (limit of detection approximately 1 nmole/mg/hr))”. Further, on wild-type E. coli PNP, the “Wild type, pure enzyme, rate of cleavage” value was “— (No detectable activity at 100 μg/ml (limit of detection approximately 1 nmole/mg/hr))”.

Consider `Nc1nc(F)nc2c1ncn2[C@@H]1O[C@H](CI)[C@@H](O)[C@H]1O` [9-(5-deoxy-5-iodo-β-D-ribofuranosyl)-2-fluoroadenine], for which the “M65V, pure enzyme, rate of cleavage” value at E. coli PNP mutant M65V stood at 490 nmol/mg/h. Also, on wild-type E. coli PNP, the “Wild type, pure enzyme, rate of cleavage” value turned out to be 13 nmol/mg/h.

`Nc1nc2c(ncn2[C@@H]2O[C@H](CO)[C@@H](O)[C@H]2O)c(=O)[nH]1` [guanosine]: the “M65V, pure enzyme, rate of cleavage” value on E. coli PNP mutant M65V is on record as 778,000 nmole/mg/hr.

Regarding `Nc1nc(Cl)nc2c1ncn2[C@@H]1C[C@@H](O)[C@H](CO)O1` [9-(2-deoxy-β-L-ribofuranosyl)-2-chloroadenine], at E. coli PNP mutant M65V, the “M65V, crude extract, rate of cleavage” value is “— (No detectable activity at 100 μg/ml (limit of detection approximately 1 nmole/mg/hr))”. For the same compound, the “Wild type, pure enzyme, rate of cleavage” value on wild-type E. coli PNP is “— (No detectable activity at 100 μg/ml (limit of detection approximately 1 nmole/mg/hr))”.

`Cc1ncnc2c1ncn2[C@@H]1O[C@H](C(C)(C)O)[C@@H](O)[C@H]1O` [9-(5,5-di-C-methyl-β-D-ribofuranosyl)-6-methylpurine]: the “M65V, pure enzyme, rate of cleavage” value at E. coli PNP mutant M65V is 230 nmol/mg/h. The “Wild type, pure enzyme, rate of cleavage” value on wild-type E. coli PNP was “— (No detectable activity at 100 μg/ml (limit of detection approximately 1 nmole/mg/hr))”.

As for `C[C@@H](O)[C@H]1O[C@@H](n2cnc3c(N)nc(F)nc32)[C@H](O)[C@@H]1O` [2-Fluoro-9-(6-deoxy-β-D-allofuranosyl)-9H-purin-6-amine], the “M65V, crude extract, rate of cleavage” value on E. coli PNP mutant M65V is 93,000 nmole/mg/hr. For the same compound, the “Wild type, pure enzyme, rate of cleavage” value at wild-type E. coli PNP is listed as 2,600 nmole/mg/hr.

As to `Nc1ncnc2c1ncn2[C@@H]1OC[C@@H](O)[C@@H](O)[C@H]1O` [9-(β-D-ribopyranosyl)-adenine], the “M65V, crude extract, rate of cleavage” value on E. coli PNP mutant M65V is “— (No detectable activity at 100 μg/ml (limit of detection approximately 1 nmole/mg/hr))”. The “Wild type, pure enzyme, rate of cleavage” value at wild-type E. coli PNP is “— (No detectable activity at 100 μg/ml (limit of detection approximately 1 nmole/mg/hr))”.

`CSC[C@H]1O[C@@H](n2cnc3c(N)ncnc32)[C@H](O)[C@@H]1O` [5′-deoxy-5′-methylthio-adenosine]: the “M65V, pure enzyme, rate of cleavage” value at E. coli PNP mutant M65V was 690 nmol/mg/h. The “Wild type, pure enzyme, rate of cleavage” value on wild-type E. coli PNP is on record as “— (No detectable activity at 100 μg/ml (limit of detection approximately 1 nmole/mg/hr))”.

As for `C#C[C@@H](O)[C@H]1O[C@@H](n2cnc3c(C)ncnc32)[C@H](O)[C@@H]1O` [9-(6,7-dideoxy-α-L-talo/β-D-allo-hept-6-ynofuranosyl)-6-methylpurine], at E. coli PNP mutant M65V, the “M65V, crude extract, rate of cleavage” value was 119 nmol/mg/h. Moreover, at wild-type E. coli PNP, the “Wild type, pure enzyme, rate of cleavage” value is “— (No detectable activity at 100 μg/ml (limit of detection approximately 1 nmole/mg/hr))”.

Consider `Nc1ncnc2c1ncn2[C@]1(CO)OC[C@@H](O)[C@@H](O)[C@@H]1O` [9-(β-D-fructopyranosyl)-adenine], for which the “M65V, crude extract, rate of cleavage” value on E. coli PNP mutant M65V was “— (No detectable activity at 100 μg/ml (limit of detection approximately 1 nmole/mg/hr))”. In addition, at wild-type E. coli PNP, the “Wild type, pure enzyme, rate of cleavage” value is listed as “— (No detectable activity at 100 μg/ml (limit of detection approximately 1 nmole/mg/hr))”.

With `Nc1nc(F)nc2c1ncn2[C@@H]1O[C@@H](CO)[C@@H](O)[C@H]1O` [9-(α-L-lyxofuranosyl)-2-fluoroadenine, 2-Fluoro-9-(α-L-lyxofuranosyl)-9H-purin-6-amine], the “M65V, crude extract, rate of cleavage” value on E. coli PNP mutant M65V is 222,000 nmole/mg/hr. The “Wild type, pure enzyme, rate of cleavage” value at wild-type E. coli PNP is 7,800 nmole/mg/hr.

For `OC[C@H]1O[C@@H](n2cnc3c(CF)ncnc32)[C@H](O)[C@@H]1O` [9-(β-D-ribofuranosyl)-6-fluoromethylpurine], the “M65V, pure enzyme, rate of cleavage” value on E. coli PNP mutant M65V is on record as 211,000 nmole/mg/hr. Also, the “Wild type, pure enzyme, rate of cleavage” value at wild-type E. coli PNP is 56,000 nmole/mg/hr.
